Literature values as cited in US20150320893A1, “TREATMENT OF LATENT HIV INFECTION” (priority 2012, published 2015).

System: latent virus in harboring cells
Details: by manipulating the PKC pathway(s) within the cell

Row | SMILES | ability to induce latent viral replication
1 | CC(=O)O[C@@]12C[C@@H](C)[C@@]3(O)[C@@H](C=C(CO)C[C@]4(O)C(=O)C(C)=C[C@@H]34)[C@@H]1C2(C)C [Prostratin] | induce latent viral replication without encouraging cell cycle progression
2 | CCC/C=C/C=C/C(=O)O[C@H]1/C(=C/C(=O)OC)C[C@H]2C[C@H]([C@@H](C)O)OC(=O)C[C@H](O)C[C@@H]3C[C@H](OC(C)=O)C(C)(C)[C@](O)(C[C@@H]4C/C(=C/C(=O)OC)C[C@H](/C=C/C(C)(C)[C@]1(O)O2)O4)O3 [bryostatin-1, bryostatin 1] | induce latent viral replication without encouraging cell cycle progression
